# Measurements published in patent US6124308A, “Optically active phenyl pyrimidine derivatives as analgesic agent” (priority 1995, dated 2000).
# Like-named read-outs stand apart in the source and are kept apart here.
# Assays:
# [1] = test system: maximal electroshock seizure; assay: Maximal electroshock test, rats, i.v., stronger current (200 mA); format: in vivo; conditions: Rattus norvegicus, iv, 1 h
# Source text: A stronger current (200 mA) was used compared with that (20 mA) used in the other procedures.
# [2] = test system: PGE2-induced acute hyperalgesia; assay: Effects on the development of PGE2-induced acute hyperalgesia (paw pressure); format: in vivo, rat; conditions: 1 h before PGE2 (100 ng), n=5
# Method: Effects on the development of PGE2 -induced acute hyperalgesia
# Reaction times to paw pressure were measured 3 h after PGE2 injection. Ataxia was scored at the same time by observation of the rats placed in an arena.
# [3] = biological target: T1, rat type IIA sodium channels (Rattus norvegicus, UniProt P04775); assay: Recombinant rat type IIA sodium channels in chinese hamster ovary cells, whole-cell recording; format: cell-based; conditions: for inhibition of Na+ currents: R(-)enantiomer 1-500 μM
# T1 construct: no beta subunit mentioned
# Source text: The IC50 's at two different holding potentials (Vh) were as follows: […]
# [4] = test system: hind-limb extension (maximal electroshock seizure); assay: Maximal electroshock test, rats, i.p., duration of action; format: in vivo, rat; conditions: for ED50: Rattus norvegicus, ip, read-out: ED50 (95% limits)
# [5] = test system: maximal electroshock seizure; assay: Maximal electroshock test, mice, different routes of administration; format: in vivo, mouse; conditions: for ED50: Mus musculus, mice, 1 hour, read-out: ED50 (95% limits)
# [6] = test system: whole-cell sodium currents in cultured rat hippocampal neurones; assay: Whole-cell sodium currents in cultured embryonic rat hippocampal neurones, patch-clamp; format: cell-based; conditions: for IC50: 20 msec pulses to -10 mV from holding potential -60 mV, read-out: IC50 (reduction of peak sodium current); for reduction of peak sodium current: holding potential -60 mV
# Source text: (b) Cultured embryonic rat hippocampal neurones
# Sodium currents were elicited by the application of 20 msec dipolarisng pulses, thereby lowering membrane potential to -10 mV from a holding potential of -60 mV.
# [7] = test system: veratrine-evoked glutamate release from rat brain slices; assay: Inhibition of veratrine-evoked glutamate release; format: cell-based
# [8] = test system: native channels in cultured rat striatal neurones (Na+ currents); assay: Native sodium channels in cultured rat striatal neurones, whole-cell recording; format: cell-based
# Source text: The action of the R(-)enantiomer on native channels in cultured rat striatal neurones was studied using whole-cell recording techniques.
# Half-life in male rats = format: in vivo, rat; conditions: rat, in vivo, read-out: half-life (t1/2) (converted)
# [9] = test system: electrical activity of the external oblique muscle (egg albumin sensitised rats); assay: Irritable bowel syndrome model: colorectal distension in egg albumin sensitised rats; format: in vivo, rat; conditions: 10 mg/kg p.o., 60 minutes before pressure response curve
# Method: Male Listar hooded rats weight range 100-150 g were used.
# The rats were sensitised by dosing ip (1 ml per rat) with a solution containing egg albumin, (10 ug/ml) pertusssis vaccine (1 mg/ml) and aluminium hydroxide (10 mg/ml). Control animals received saline.
# Seven days later the rats were anaesthetised using isofurane and the external oblique muscle exposed. Two nichrome wires were implanted into the muscles and the wires exteriorised to the back of the neck, the skin was sutured and the animals were allowed to recover.
# Six days later the animals were fasted overnight. On the following day the animals were anaesthetised and the colorectum washed out using saline. A 4 cm long latex balloon tied to a portex cannula was connected to an inflation device, and the nichrome electrodes at the back of the neck were connected to head stage.
# The electrical activity of the external oblique muscle was recorded by a data capture system (`spike2`) which calculated the number of electrical spikes. Sequential pressure response curves (10-100 mmHg) in sensitised and the control animals were constructed. The balloon was inflated for 1 min at each pressure, followed by a rest period of 5 min.
# The mean number of spikes at each pressure was calculated for the control animals, sensitised animals and sensitised animals treated with the R(-) enantiomer. […]
# rat liver DHFR = biological target: T2, rat liver DHFR (Rattus norvegicus, UniProt Q920D2); assay: Activity against dihydrofolate reductase (DHFR), spectrophotometric assay; format: biochemical
# T2 construct: rat liver DHFR; from tissue; host or cells: rat liver
# T2 sequence (Q920D2 1-187): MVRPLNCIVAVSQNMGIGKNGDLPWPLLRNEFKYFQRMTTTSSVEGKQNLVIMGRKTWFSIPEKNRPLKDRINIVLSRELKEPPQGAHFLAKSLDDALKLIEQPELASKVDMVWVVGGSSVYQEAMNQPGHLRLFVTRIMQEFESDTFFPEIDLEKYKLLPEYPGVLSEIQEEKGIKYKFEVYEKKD
# [10] = test system: established PGE2-induced acute hyperalgesia; assay: Effects on established PGE2-induced acute hyperalgesia (paw pressure); format: in vivo; conditions: Rattus norvegicus, po, 2 h after PGE2 (100 ng); read-out: analgesia ED50 and 95% confidence limits
# Method: Effects on established PGE2 -induced acute hyperalgesia
# The R(-)enantiomer was given orally 2 h after subplantar injection of PGE2 (100 ng) when the hyperalgesia was established. Reaction time to paw pressure was measured 3 h after the PGE2 administration.
# [11] = test system: striatal dopamine in MPTP injected C57B1/6 mice; assay: MPTP induced neurotoxic model, striatal dopamine levels; format: in vivo, mouse
# Method: Six-week old male C57B1/6 mice (Japan SLC Co., Hamamatu) were housed ten per case in a temperature-controlled room under a 12-hours light/12-hours dark cycle with free access to food and water.
# Mice received i.p. injections of the R(-) enantiomer and the S(+) enantiomer (30 mg/kg) in olive oil starting 12 hours before MPTP injection and every 12 hours for the next 5-injections. Control mice received olive oil only.
# Mice receive s.c. injection of MPTP-HCl (40 mg of free base per kg; Research Biochemicals) in saline. Control mice received saline only.
# HPLC with electrochemical detection was used to measure striatal levels of dopamine (J.C. Garcia': Journal of Chromatography B. 656 (1994) 77-80).
# Seven days after the MPTP injection, mice ([…]) were killed and striata were dissected out, immediately frozen, and stored at -80° C. until analysis. On the day of the assay, tissue samples were sonicated in 10 vol(wt/vol) of 0.1M perchloric acid /1.9 mM sodium hydrogen sulfite containing 1.6μg/ml 3,4-dihydroxybenzylamine hydrobromide(Sigma) as an internal standard. After centrifugation (2,800× g for 10 min at room temperature) and filtration (0.5 μm; Millipore membrane filter), 10 μl of supernatant was injected onto an Inertsil ODS3 column (4.6×250 mm; GL Science, Tokyo). The mobile phase consisted of 88% 115 mM NaH2 PO4 /0.178 mM Na2 EDTA /0.92 mM 1-octanesulfonic acid (pH=2.6) solution and 12% ethanol. F low rate was 1.0 ml/min. Peaks were detected by a Shimazu electrochemical detector LECD-6A(700 mV).
# T1 sequence (P04775 whole entry): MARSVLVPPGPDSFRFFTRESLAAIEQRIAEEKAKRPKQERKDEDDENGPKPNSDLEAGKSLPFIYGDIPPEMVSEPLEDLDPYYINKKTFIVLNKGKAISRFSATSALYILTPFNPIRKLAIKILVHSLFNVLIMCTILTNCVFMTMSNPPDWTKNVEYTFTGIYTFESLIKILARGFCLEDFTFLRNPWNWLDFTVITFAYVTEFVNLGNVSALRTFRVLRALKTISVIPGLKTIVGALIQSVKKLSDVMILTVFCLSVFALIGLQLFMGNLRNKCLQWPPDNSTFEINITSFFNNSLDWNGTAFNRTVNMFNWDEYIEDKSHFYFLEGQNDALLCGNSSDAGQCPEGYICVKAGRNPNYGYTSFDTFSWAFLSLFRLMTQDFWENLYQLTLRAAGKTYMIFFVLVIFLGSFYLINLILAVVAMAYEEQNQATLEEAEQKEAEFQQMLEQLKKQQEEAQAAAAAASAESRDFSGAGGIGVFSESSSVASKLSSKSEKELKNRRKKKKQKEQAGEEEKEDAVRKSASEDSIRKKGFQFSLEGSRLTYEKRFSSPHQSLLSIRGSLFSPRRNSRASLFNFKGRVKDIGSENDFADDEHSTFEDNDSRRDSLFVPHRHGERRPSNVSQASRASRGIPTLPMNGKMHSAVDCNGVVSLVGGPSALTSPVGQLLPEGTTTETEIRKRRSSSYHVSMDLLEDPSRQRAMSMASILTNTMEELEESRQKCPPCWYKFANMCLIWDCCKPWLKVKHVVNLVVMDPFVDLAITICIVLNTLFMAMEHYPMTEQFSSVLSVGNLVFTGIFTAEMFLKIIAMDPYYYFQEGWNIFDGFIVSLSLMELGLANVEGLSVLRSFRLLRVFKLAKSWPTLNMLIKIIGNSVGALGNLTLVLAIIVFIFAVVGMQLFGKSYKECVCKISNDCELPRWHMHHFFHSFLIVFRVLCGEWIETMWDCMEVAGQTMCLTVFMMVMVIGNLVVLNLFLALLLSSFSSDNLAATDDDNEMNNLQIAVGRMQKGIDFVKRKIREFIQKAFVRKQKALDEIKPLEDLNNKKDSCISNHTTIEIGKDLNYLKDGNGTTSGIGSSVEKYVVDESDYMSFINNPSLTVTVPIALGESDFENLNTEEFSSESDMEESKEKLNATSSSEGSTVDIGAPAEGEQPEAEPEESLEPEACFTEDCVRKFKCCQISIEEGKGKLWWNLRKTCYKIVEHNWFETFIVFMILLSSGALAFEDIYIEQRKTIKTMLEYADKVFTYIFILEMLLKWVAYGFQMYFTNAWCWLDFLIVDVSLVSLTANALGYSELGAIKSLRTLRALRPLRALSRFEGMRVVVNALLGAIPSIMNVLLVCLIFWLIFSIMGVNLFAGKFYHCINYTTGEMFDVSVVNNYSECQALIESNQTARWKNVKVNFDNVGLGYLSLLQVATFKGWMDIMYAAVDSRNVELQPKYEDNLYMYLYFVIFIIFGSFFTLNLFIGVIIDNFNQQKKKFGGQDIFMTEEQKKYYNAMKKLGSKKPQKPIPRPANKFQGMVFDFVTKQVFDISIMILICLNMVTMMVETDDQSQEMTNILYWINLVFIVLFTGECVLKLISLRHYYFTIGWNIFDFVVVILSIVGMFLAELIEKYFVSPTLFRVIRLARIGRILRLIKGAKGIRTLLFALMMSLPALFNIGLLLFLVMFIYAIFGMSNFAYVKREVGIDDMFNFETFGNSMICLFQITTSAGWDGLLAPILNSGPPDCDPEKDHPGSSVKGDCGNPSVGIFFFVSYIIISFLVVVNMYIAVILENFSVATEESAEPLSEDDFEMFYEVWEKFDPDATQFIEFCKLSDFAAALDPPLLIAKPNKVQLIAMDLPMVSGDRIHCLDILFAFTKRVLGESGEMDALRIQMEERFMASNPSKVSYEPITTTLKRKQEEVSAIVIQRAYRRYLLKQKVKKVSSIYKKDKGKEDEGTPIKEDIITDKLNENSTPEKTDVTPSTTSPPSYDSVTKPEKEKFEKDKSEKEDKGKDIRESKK
structure (smiles),measurement,setting,value
"Nc1nnc(-c2cccc(Cl)c2Cl)c(N)n1 [Lamotrigine, 3,5-diamino-6-(2,3-dichlorophenyl)-1,2,4-triazine, reference compound]",ED50,[1],2.5 mg/kg
same,ED50,"[2]; Rattus norvegicus, po, read-out: Analgesia ED50 (95% limits)",34.8 mg/kg
same,IC50,"[3]; IC50 (inhibition of Na+ currents), Vh = -60 mV",98 µM
same,IC50,"[3]; IC50 (inhibition of Na+ currents), Vh = -90 mV",413 µM
same,inhibition of Na+ currents,[3],inhibition of Na^+ currents in a concentration-dependent and voltage-dependent manner
same,ED50,"[4]; rats, 0.5 hours",2.7 mg/kg
same,ED50,"[4]; rats, 1 hour",3.3 mg/kg
same,ED50,"[4]; rats, 2 hours",2.7 mg/kg
same,ED50,"[4]; rats, 4 hours",2.3 mg/kg
same,ED50,"[4]; rats, 8 hours",4.8 mg/kg
same,ED50,"[4]; rats, 24 hours",7.1 mg/kg
same,ED50,"[5]; ip, i.p.",2.3 mg/kg
same,ED50,"[5]; po, p.o.",3.3 mg/kg
same,ED50,"[5]; sc, s.c.",1.8 mg/kg
same,IC50,"[6]; Rattus norvegicus, Hippocampal neurone",16 µM
same,reduction of peak sodium current,[6],concentration-dependent reduction of peak sodium current
same,IC50,[7]; Rattus norvegicus,21 µM
"Nc1nc(N)c(-c2cccc(Cl)c2Cl)c(CF)n1 [R(-)enantiomer, R(-)-2,4-diamino-5-(2,3-dichlorophenyl)-6-fluoromethyl pyrimidine]",inhibition of Na+ currents,[8],concentration- and voltage-dependent inhibition of Na^+ currents
same,inhibition by 10-30 μM on hyperpolarising the cells,"[8]; 10-30 μM, Vh = -120 mV",virtually eliminated
same,IC50,"[8]; Rattus norvegicus, holding potential (Vh) of 60 mV, read-out: IC50 (inhibition of Na+ currents)",~8 µM
same,potency at Vh = -90 mV compared with IC50 at 60 mV,[8]; Vh = -90 mV,much lower potency
same,Analgesia ED50 (95% limits),[2]; p.o.,2.5 (2.2-2.9) mg/kg
same,half-life,Half-life in male rats,5.4 h
same,inhibition of Na+ currents,[3],inhibition of Na^+ currents in a concentration-dependent and voltage-dependent manner
same,IC50,"[3]; Vh = -60 mV, read-out: IC50 (inhibition of Na+ currents)",18 µM
same,IC50,"[3]; Vh = -90 mV, read-out: IC50 (inhibition of Na+ currents)",160 µM
same,ED50,"[4]; 8 h, i.p., rats, 8 hours",5.9 mg/kg
same,ED50,"[4]; 24 h, i.p., rats, 24 hours",12.9 mg/kg
same,times more active than its S(=)enantiomer,"[4]; anticonvulsant, rats, i.p.",15-20 times
same,times more active than lamotrigine,"[4]; anticonvulsant, rats, i.p.",2-3 times
same,ED50 at 2 hrs (isethionate salt versus base),"[4]; i.p., 2 hrs, calculated as the base, p<0.05, listed as R(-) enantiomer base, 120 min",2.5 mg/kg
same,ED50 (95% limits),"[4]; i.p., rats, 0.5 hours, 30 min",1.3 (0.9-1.9) mg/kg
same,ED50 (95% limits),"[4]; i.p., rats, 1 hour, 60 min",1.0 (0.7-1.5) mg/kg
same,ED50 (95% limits),"[4]; i.p., rats, 2 hours, 120 min",1.2 (0.8-1.7) mg/kg
same,ED50 (95% limits),"[4]; i.p., rats, 4 hours, 240 min",2.3 (1.6-3.4) mg/kg
same,duration of action,[4]; maximal electroshock,long duration of action
same,ED50,"[5]; ip, i.p.",1.3 mg/kg
same,ED50,"[5]; po, p.o.",1.2 mg/kg
same,ED50,"[5]; sc, s.c.",0.96 mg/kg
same,times more potent than lamotrigine in the maximal electroshock test,[5]; in rats and mice,2-3 times
same,activity by the various routes tested,"[5]; maximal electroshock, rats and mice",approximately equiactive by the various routes tested
same,reversal of the changes induced by egg albumin,[9],complete reversal
same,inhibition at 100 µM,rat liver DHFR,25%
same,IC50,[6],4 µM
same,reduction of peak sodium current,[6],concentration-dependent reduction of peak sodium current
same,ED50,[10],3.4 mg/kg
same,inhibition of veratrine-evoked glutamate release,[7]; at 10 μM,64%
same,% protection,"[11]; 30 mg/kg i.p. 6 times, MPTP 40 mg/kg s.c.",81.0%
same,Dopamine content in the striatum,"[11]; 30 mg/kg i.p. 6 times, MPTP 40 mg/kg s.c., day 7",12.45 ± 1.18 μg/g wet tissue
same,% mortality,"[11]; 30 mg/kg i.p., day -1 to 7",0%
